In patent US20060172993A1 (priority 2002, published 2006):

Experiments:
[1] = system: Patients diagnosed with Alzheimer's Disease; experiment: ADCS/ADL scale (Activities of Daily Living); assay type: in vivo, human
Text: (§1) Subjects in the Placebo group received 21 weeks (5 months) of placebo medication.
The ADCS/ADL scale is a 23-item informant-based assessment scale measuring widely applicable daily activities appropriate for patients in the mild to moderate category of Alzheimer's Disease. The 23 items were selected for measurement from the larger set of 45 items studied by Galasko et al (Alzheimer Disease and Associated Disorders, Vol 11, Suppl. 2, 1997). These individual items were scored from 0-3 to […], depending on the question, with a possible total score of 78. A higher score indicated a higher functioning patient.
The items and scoring were as follows: • Eating (0-3) • Walking (0-3) • Toileting (0-3) • Bathing (0-3) • Grooming (0-3) • Dressing • selection of clothes (0-3) • physical performance (0-4) • Telephone (0-5) • Television (0-3) • Conversation (0-3) • Dishes (0-3) • Managing personal belongings (0-3) • Obtaining beverages (0-3) • Making a meal or snack (0-4) • Disposal of garbage (0-3) • Travel outside home (0-4) • Shopping (0-4) • Keeping appointments (0-3) • Ability to be left alone (0-3) • Current events (0-3) • Reading (0-2) • Writing (0-3) • Hobbies (0-3) • Household appliances (0-4)
An additional secondary indication captures overall changes in Activities of daily Living (ADL) performances as measured by the Alzheimer's Disease Cooperative Study Activities of Daily Living (ACDS/ADL) scale. As mentioned above this scale is comprised of 23 items that have been tested and validated in patients with mild to moderately severe Alzheimer's disease.

[2] = system: Patients diagnosed with Alzheimer's Disease; experiment: Neuropsychiatric Inventory (NPI); assay type: in vivo, human
Text: as §1
Neuropsychiatric behavior was monitored by a test known as The Neuropsychiatric Inventory (NPI) (Cummings, J. L. et al., Neurology, 44: 2308-2314, 1994). The NPI covers 10 domains of behaviors reported in patients with Alzheimer's Disease: delusions, hallucinations, agitation/aggression, dysphoria, anxiety, euphoria, apathy, disinhibition, irritability/lability and aberrant motor behavior. For each domain abnormal behavior can be absent (score 0) or present. If present, the frequency and severity of abnormal behavior is rated based on answers to a set of subquestions regarding behaviors relevant to that domain. Severity was rated 1 to 3 as mild, moderate or marked. Frequency was rated 1 to 4 as occasionally, often, frequently and very frequently. The product of frequency and severity (maximum score=12) was calculated for each domain. A total of NPI was calculated as the sum of the frequency and severity products (maximum score=120). The NPI was performed at visits 2, 3, 4 and 5 (baseline, week 4, week 13, and month 5 or upon early discontinuation of trial medication).

COc1ccc2c3c1O[C@H]1C[C@@H](O)C=C[C@@]31CCN(C)C2 [GAL, galantamine]
Change in Total ADL score from baseline at Month 5, Mean ([1]; 8 mg/day, LOCF): −3.2 | Change in Total ADL score from baseline at Month 5, Mean ([1]; 8 mg/day, observed case): −3.1 | Change in Total ADL score from baseline at Month 5, Mean ([1]; 16 mg/day, LOCF): −0.7 | Change in Total ADL score from baseline at Month 5, Mean ([1]; 16 mg/day, observed case): −0.5 | Change in Total ADL score from baseline at Month 5, Mean ([1]; 24 mg/day, LOCF): −1.5 | Change in Total ADL score from baseline at Month 5, Mean ([1]; 24 mg/day, observed case): −1.6 | Change in Total NPI score from baseline at Month 5, Mean ([2]; 8 mg/day, LOCF): 2.3 | Change in Total NPI score from baseline at Month 5, Mean ([2]; 8 mg/day, observed case): 2.3 | Change in Total NPI score from baseline at Month 5, Mean ([2]; 16 mg/day, LOCF): −0.1 | Change in Total NPI score from baseline at Month 5, Mean ([2]; 16 mg/day, observed case): −0.1 | Change in Total NPI score from baseline at Month 5, Mean ([2]; 24 mg/day, LOCF): −0.0 | Change in Total NPI score from baseline at Month 5, Mean ([2]; 24 mg/day, observed case): −0.1
